Results as given in US4918054A, “Antibiotics called `chloropolysporins B and C`, a process for their preparation, and their therapeutic and veterinary use” (Sankyo Company Limited, priority 1985, dated 1990).
Values after ≈ are worked out from the molar mass of the structure shown.

Columns and labels:
[1] = system: Klebsiella pneumoniae PCI 602; experiment: MIC, two-fold agar dilution method, Mueller-Hinton agar; assay type: cell-based
[2] = system: Staphylococcus aureus FDA 209P JC-1; experiment: as above; assay type: cell-based
[3] = system: Pseudomonas aeruginosa NCTC 10490; experiment: as above; assay type: cell-based
Clostridium symbiosum = experiment: MIC against anaerobic bacteria, GAM agar medium; assay type: cell-based
[4] = system: Staphylococcus aureus SANK 70175; experiment: MIC, two-fold agar dilution method, Mueller-Hinton agar; assay type: cell-based
[5] = system: Fusobacterium necrophorum; experiment: MIC against anaerobic bacteria, GAM agar medium; assay type: cell-based
[6] = system: Staphylococcus epidermidis SANK 71575; experiment: MIC, two-fold agar dilution method, Mueller-Hinton agar; assay type: cell-based
[7] = system: Enterococcus faecalis SANK 71778; experiment: as above; assay type: cell-based
[8] = system: Peptostreptococcus parvulus; experiment: MIC against anaerobic bacteria, GAM agar medium; assay type: cell-based
[9] = system: Peptostreptococcus saccharoliticus; experiment: MIC against anaerobic bacteria, GAM agar medium; assay type: cell-based
Solubility in solvents = assay type: physicochemical
[10] = system: Serratia marcescens SANK 73060; experiment: MIC, two-fold agar dilution method, Mueller-Hinton agar; assay type: cell-based
[11] = system: Mycobacterium smegmatis ATCC 607; experiment: as above; assay type: cell-based
Propionibacterium acnes = experiment: MIC against anaerobic bacteria, GAM agar medium; assay type: cell-based
[12] = system: Proteus mirabilis SANK 70461; experiment: MIC, two-fold agar dilution method, Mueller-Hinton agar; assay type: cell-based
Eubacterium cylindroides = experiment: MIC against anaerobic bacteria, GAM agar medium; assay type: cell-based
[13] = system: Staphylococcus aureus Smith; experiment: MIC, two-fold agar dilution method, Mueller-Hinton agar; assay type: cell-based
Clostridium difficile = experiment: MIC against anaerobic bacteria, GAM agar medium; assay type: cell-based
Procedure: The minimal inhibitory concentrations (MIC) of chloropolysporins B and C against various gram-positive and gram-negative bacteria were determined by the two-fold agar dilution method, using a Mueller-Hinton agar medium (produced by Difco); the MIC against anaerobic bacteria was determined using a GAM agar medium (produced by Nissui).

[14] = system: Escherichia coli NIHJ JC-2; experiment: MIC, two-fold agar dilution method, Mueller-Hinton agar; assay type: cell-based
Clostridium perfringens = assay type: cell-based; conditions: anaerobic, GAM agar
Clostridium ramosum = experiment: MIC against anaerobic bacteria, GAM agar medium; assay type: cell-based
[15] = system: Bacillus subtilis PCI 219; experiment: MIC, two-fold agar dilution method, Mueller-Hinton agar; assay type: cell-based
Bacteroides fragilis = experiment: MIC against anaerobic bacteria, GAM agar medium; assay type: cell-based

Row | SMILES | MIC [1] [µg/mL] | MIC [2] [µg/mL] | MIC [3] [µg/mL] | MIC (Clostridium symbiosum) [µg/mL] | MIC [4] [µg/mL] | MIC [5] [µg/mL] | MIC [6] [µg/mL] | MIC [7] [µg/mL] | MIC [8] [µg/mL] | MIC [9] [µg/mL] | solubility in acetone (Solubility in solvents; as its sulfate) | solubility in benzene (Solubility in solvents; as its sulfate) | solubility in chloroform (Solubility in solvents; as its sulfate) | solubility in ethyl acetate (Solubility in solvents; as its sulfate) | solubility in methanol (Solubility in solvents; as its sulfate) | solubility in water (Solubility in solvents; as its sulfate) | solubility in water (Solubility in solvents; free bases) | MIC [10] [µg/mL] | MIC [11] [µg/mL] | MIC (Propionibacterium acnes) [µg/mL] | further results
1 | CNC(C(=O)NC1C(=O)NC(c2ccc(O)c(Cl)c2)C(=O)NC2C(=O)NC3C(=O)NC(C(=O)NC(C(=O)O)c4cc(O)cc(O)c4-c4cc3ccc4O)C(OC3CC(N)C(O)C(C)O3)c3ccc(c(Cl)c3)Oc3cc2cc(c3OC2OC(CO)C(O)C(O)C2O)Oc2ccc(cc2Cl)C1OC1OC(CO)C(O)C(O)C1O)c1ccc(OC2OC(C)C(O)C(O)C2O)cc1 (stereo not shown) [Chloropolysporin B, chloropolysporin B] | > 100 | 1.56 (≈ 0.844 µM) | > 100 | 1.56 (≈ 0.844 µM) | 3.13 (≈ 1.69 µM) | > 100 | 3.13 (≈ 1.69 µM) | 1.56 (≈ 0.844 µM) | 0.78 (≈ 0.422 µM) | 6.25 (≈ 3.38 µM) | sparingly soluble | insoluble | insoluble | insoluble | soluble | soluble | insoluble in water | > 100 | 25.0 (≈ 13.5 µM) | 0.78 (≈ 0.422 µM) | MIC [12]: > 100 µg/mL; MIC (Eubacterium cylindroides): 6.25 µg/mL (≈ 3.38 µM); MIC [13]: 12.5 µg/mL (≈ 6.76 µM); MIC (Clostridium difficile): 0.78 µg/mL (≈ 0.422 µM); MIC [14]: > 100 µg/mL; MIC (Clostridium perfringens): 0.20 µg/mL (≈ 0.108 µM); MIC (Clostridium ramosum): 1.56 µg/mL (≈ 0.844 µM); MIC [15]: 0.78 µg/mL (≈ 0.422 µM); MIC (Bacteroides fragilis): > 100 µg/mL
2 | CNC(C(=O)NC1C(=O)NC(c2ccc(O)c(Cl)c2)C(=O)NC2C(=O)NC3C(=O)NC(C(=O)NC(C(=O)O)c4cc(O)cc(O)c4-c4cc3ccc4O)C(OC3CC(N)C(O)C(C)O3)c3ccc(c(Cl)c3)Oc3cc2cc(c3OC2OC(CO)C(O)C(O)C2O)Oc2ccc(cc2Cl)C1OC1OC(CO)C(O)C(O)C1O)c1ccc(O)cc1 (stereo not shown) [Chloropolysporin C, chloropolysporin C] | > 100 | 1.56 (≈ 0.916 µM) | > 100 | 0.39 (≈ 0.229 µM) | 1.56 (≈ 0.916 µM) | > 100 | 3.13 (≈ 1.84 µM) | 1.56 (≈ 0.916 µM) | 0.39 (≈ 0.229 µM) | 3.13 (≈ 1.84 µM) | sparingly soluble | insoluble | insoluble | insoluble | soluble | soluble | insoluble in water | > 100 | 12.5 (≈ 7.34 µM) | 0.39 (≈ 0.229 µM) | MIC [12]: > 100 µg/mL; MIC (Eubacterium cylindroides): 3.13 µg/mL (≈ 1.84 µM); MIC [13]: 6.25 µg/mL (≈ 3.67 µM); MIC (Clostridium difficile): 0.39 µg/mL (≈ 0.229 µM); MIC [14]: > 100 µg/mL; MIC (Clostridium perfringens): 0.10 µg/mL (≈ 0.0587 µM); MIC (Clostridium ramosum): 1.56 µg/mL (≈ 0.916 µM); MIC [15]: 0.78 µg/mL (≈ 0.458 µM); MIC (Bacteroides fragilis): > 100 µg/mL
